The values below come from patent US20130259999A1, “METHOD FOR INHIBITING YEAST ACTIVITY” (PURAC BIOCHEM B.V., priority 2010, published 2013).

Assay [1] deals with Zygosaccharomyces bailii (CBS 6708). As to the kind of experiment: Combination tests: inhibition of yeast in model beverage. The assay is classed as cell-based. The settings on record: Z. bailii, model beverage pH about 3.5, 96 hours. The procedure: (§1) Candida albicans was isolated from a commercial beverage, Saccharomyces cerevisiae (CBS 2190) and Zygosaccharomyces bailii (CBS 6708) were obtained from CBS (Centraalbureau voor Schimmelcultures).
(§2) Inhibition of yeast was evaluated for combinations of EGCG and polylysine or LAE.
(§3) Yeast cultures were grown in model beverage which contained per litter of demineralised water: 40 g of sucrose, 0.35 g of apple flavour (Givaudan), 8.3 g of apple juice concentrate (Gargill) and 1 g of citric acid. The pH was about 3.5. Cultures were grown in screw-capped tubes for at least 48 hours at 25° C.
(§4) The tests combining two components were carried out in sterile 96-well Microtiter plates. Model beverage was prepared as described above with increasing amounts of two different inhibitors. The concentrations of each inhibitor were presented in 8 equal concentration steps that ranged from 0 to 1-2 times the estimated MIC value of particular yeast for a particular inhibitor. 200 μl of each medium was transferred to a panel of a sterile 96-well Microtiter plate. Completed well plates were stored at 4° C. until further use. For the inoculation of this test 5 μl of a 72 to 84 hours grown culture was used. The OD for every composition was measured 96 hours after inoculation.

The test system of assay [2] is Saccharomyces cerevisiae (CBS 2190). Described as above. The assay is classed as cell-based. The settings on record: S. cerevisiae, model beverage pH about 3.5, 96 hours. The procedure:
as §1, §2, §3, §4

Assay [3] has as its system Candida albicans. Described as above. The assay is classed as cell-based. The settings on record: C. Albicans, model beverage pH about 3.5, 96 hours. On the procedure: as §1, §2, §3, §4
Assay [4] relates to Zygosaccharomyces bailii (CBS 6708). Kind of assay: Determination of the minimal inhibitor concentration (MIC) in liquid medium. The format is cell-based. The settings on record: Z. bailii; liquid medium pH 3.5; OD 96 hours after inoculation. On the procedure: as §1
(§5) Yeast cultures were grown in liquid medium (per liter: 5 gram filtered Malt Extract from Oxoid Ltd., England, 40 gram glucose and 5 gram Bacto Peptone from Becton Dickinson, USA, at pH 3.5 prepared according to the manufacturer instructions) in screw-capped tubes for at least 48 hours at 25° C.
(§6) For the determination of the MIC, liquid medium was prepared as described above with increasing amounts of inhibitor. 200 μl of each inhibitor-comprising medium was transferred to a panel of a sterile 96-well Microtiter plate. Completed well plates were stored at 4° C. until further use. For the inoculation of the inhibitor-containing liquid media 5 μl of a 72 to 84 hours grown culture was used. The optical density (OD) for every composition was measured 96 hours after inoculation.

For assay [5], the system named is Saccharomyces cerevisiae (CBS 2190). The description is as above. The settings on record: S. cerevisiae; liquid medium pH 3.5; OD 96 hours after inoculation. The assay is classed as cell-based. On the procedure:
as §1, §5, §6

For assay [6], the system named is Candida albicans. The description is as above. The format is cell-based. The settings on record: C. Albicans; liquid medium pH 3.5; OD 96 hours after inoculation. On the procedure: as §1, §5, §6
Another assay relates to Saccharomyces cerevisiae. The settings on record: culture medium, WO 2009/031041; cited from earlier work.
For a further assay, the system named is Kluyveromyces marxianus. The settings on record: culture medium, WO 2009/031041; cited from earlier work.
Setting [7] is: EGCG 0.07 wt. %, average of two experiments.

Marks after values point to notes of the source that are not given here.

As to `O=C(O[C@@H]1Cc2c(O)cc(O)cc2O[C@@H]1c1cc(O)c(O)c(O)c1)c1cc(O)c(O)c(O)c1` [EGCG, Epigallocatechin gallate], the “Maximum OD” value in assay [1] (setting [7]) is given as 0.28*; in assay [2] (setting [7]), 0.28*; in the assay on Candida albicans [3] (setting [7]), 0.40*. In addition, the MIC was found to be 2000 ppm in assay [4], 5000 ppm in assay [5] and 9000 ppm in the assay with Candida albicans [6].
In the case of `CCCCCCCCCCCC(=O)N[C@@H](CCCN=C(N)N)C(=O)OCC` [LAE, lauric arginate], the MIC was 24 ppm in the assay with Saccharomyces cerevisiae; >70* ppm in assay [4]; 30-80 ppm in assay [5]; >70* ppm against Candida albicans [6]; 7 ppm in the assay with Kluyveromyces marxianus. In addition, the “Maximum OD” value in assay [1] (LAE 0.002 wt. %) was 0.38; in assay [2] (LAE 0.001 wt. %) it was 0.19; in the assay on Candida albicans [3] (LAE 0.002 wt. %) it was 0.30.
With ε-Polylysine, the “Maximum OD” value in assay [1] (ε-polylysine 0.0005 wt. %) is given as 0.40; in the assay with Candida albicans [3] (ε-polylysine 0.0005 wt. %) it was 0.32. In addition, the MIC in assay [4] is >40* ppm; in assay [5], 30-80 ppm; in the assay with Candida albicans [6] it was >40* ppm.
